Measurements taken from patent US6806230B1, “Pyrimidine derivatives and herbicides containing them” (Kumiai Chemical Industry Co., Ltd., priority 1999, dated 2004).

What was measured:
Type in all cases: in vivo
[1] = tested on: barnyard grass (Eo); experiment: Test Example 4: selectivity for a crop plant by flooded paddy field treatment; design: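 0-5 growth inhibition grade; 5 = over 90%; 4 = 70-90%; 3 = 50-70%; 2 = 30-50%; 1 = 10-30%; 0 = under 10%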; settings: barnyard grass, dose 25 gai/10a, 21st day after treatment, index per Table 44
Method: (§1) In a 100 cm^2 plastic pot, a paddy field soil was filled and paddled. Then, seeds of barnyard grass (Eo) and monochoria (Mo) were sown, and rice (Or) of second leaf stage was transplanted, and water was introduced to a depth of 3 cm. Next day, a wettable powder prepared in accordance with Formulation Example 1 was diluted with water and dropwise applied to the water surface. The dose was 25 g of the active ingredient per 10 ares. Thereafter, cultivation was carried out in a green house, and on the 21st day after the treatment, the herbicidal effects were examined in accordance with the standards of Table 44.

[2] = tested on: rice (Or); experiment: as above; design: scale not given here; settings: rice transplanted at second leaf stage, dose 25 gai/10a, 21st day after treatment, index per Table 44
Method: as §1

[3] = tested on: monochoria (Mo); experiment: as above; design: scale not given here; settings: monochoria, dose 25 gai/10a, 21st day after treatment, index per Table 44
Method: as §1

[4] = tested on: barnyard grass (Ec); experiment: Test Example 2: herbicidal effects by upland soil treatment; design: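 0-5 growth inhibition grade; 5 = over 90%; 4 = 70-90%; 3 = 50-70%; 2 = 30-50%; 1 = 10-30%; 0 = under 10%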; settings: dose 100 g active ingredient per 10 ares, examined on the 21st day after treatment
Summary of the method: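 Pre-emergence test: barnyard grass and green foxtail sown in upland soil, then soil surface sprayed with wettable-powder formulation at 100 g active ingredient per 10 ares (100 l per 10 ares). Grown in greenhouse; herbicidal effect scored on a rating scale 21 days after treatment.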

[5] = tested on: monochoria (Mo); experiment: Test Example 1: herbicidal effects by flooded paddy field treatment; design: herbicidal effects, Mo (monochoria):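 0-5 growth inhibition grade; 5 = over 90%; 4 = 70-90%; 3 = 50-70%; 2 = 30-50%; 1 = 10-30%; 0 = under 10%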; settings: dose 100 g active ingredient per 10 ares, examined on the 21st day after treatment, standards of Table 44
Summary of the method: (§2)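 Herbicidal effect is a graded score assigned 21 days after treatment. Application was one day after sowing into flooded (3 cm) puddled paddy soil, with diluted wettable powder dropped onto the water at 100 g active ingredient per 10 ares. Plants were kept in a greenhouse.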

[6] = tested on: barnyard grass (Eo); experiment: as above; design: herbicidal effects, Eo (barnyard grass):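 0-5 growth inhibition grade; 5 = over 90%; 4 = 70-90%; 3 = 50-70%; 2 = 30-50%; 1 = 10-30%; 0 = under 10%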; settings: dose 100 g active ingredient per 10 ares, examined on the 21st day after treatment, standards of Table 44
Summary of the method: as §2

SMILES	Eo (herbicidal effect index) [1]	Or (herbicidal effect index on crop) [2]	Mo (herbicidal effect index) [3]	Ec (herbicidal effects, index) [4]	herbicidal effects, Mo (monochoria) [5]	herbicidal effects, Eo (barnyard grass) [6]
C#CCN(C(=O)Cc1ccsc1)C(c1cncnc1C(F)(F)F)C(C)C (racemic) [2-78]	5	1	5	5	5	5
C#CCN(C(=O)Cc1ccc(F)c(F)c1)C(c1cncnc1C(F)(F)F)C(C)C (racemic) [1-614]	5	1	5	5	5	5
Cc1ccccc1C(c1cncnc1C(F)(F)F)N(C)C(=O)Cc1ccc(F)cc1 (racemic) [1-551]	5	0	5	5	5	5
Cc1ccc(CC(=O)N(C)C(c2ccccc2C)c2cncnc2C(F)(F)F)cc1 (racemic) [1-553]	5	1	5	5	5	5
CN(C(=O)Cc1cccs1)C(c1ccccc1)c1cncnc1C(F)(F)F (racemic) [2-19]	5	1	5	5	5	5
COC1(C(c2cncnc2C(C)C)N(C)C(=O)Cc2ccc(C)cc2)OCCO1 (racemic) [1-604]	5	1	5	5	5	5
CCCc1ncncc1C(CCC)N(C)C(=O)Cc1ccc(C)cc1 (racemic) [1-495]	5	0	5	5	5	5
C=CCN(C(=O)Cc1ccc(C)cc1)C(c1cncnc1C(F)(F)F)C(C)C (racemic) [1-521]	5	1	5	5	5	5
C#CCN(C(=O)Cc1ccc(Cl)cc1)C(CCC)c1cncnc1CC (racemic) [1-608]	5	1	5	5	5	5
CN(C(=O)Cc1ccc(Cl)cc1F)C(c1ccccc1)c1cncnc1C(F)(F)F (racemic) [Compound 1-250]	5	1	5	4	5	5
CCC(c1cncnc1C(C)(C)C)N(C)C(=O)Cc1ccc(C)cc1 (racemic) [1-573]	5	1	5	5	5	5
CCC(c1cncnc1C(C)C)N(C)C(=O)Cc1ccc(C)cc1 (racemic) [1-439]	5	1	5	5	5	5
CCCc1ncncc1C(C(C)C)N(C)C(=O)Cc1ccc(C)cc1 (racemic) [1-448]	5	1	5	5	5	5
CCN(C(=O)N(C)C(c1cncnc1C(F)(F)F)C(C)C)c1ccccc1 (racemic) [1-425]	5	1	5	5	5	5
CC(C)C(c1cncnc1C(F)(F)Cl)N(C)C(=O)OCc1ccccc1 (racemic) [1-639]	5	1	4	5	5	5
C#CCN(C(=O)Cc1ccc(F)cc1)C(c1cncnc1CC)C(C)(C)C (racemic) [1-627]	5	1	5	5	5	5
CON=Cc1ncncc1C(C(C)C)N(C)C(=O)Cc1ccc(Cl)cc1 (racemic) [1-498]	5	0	5	5	5	5
CCN(C(=O)Cc1ccsc1)C(c1cncnc1C(F)F)C(C)C (racemic) [2-8]	5	0	5	5	5	5
